# Experiments:
# [1] = target: T1, hCav3.2 (Homo sapiens, UniProt O95180); experiment: Manual patch clamp experiment of hCav3.2 channel (HEK-hCav3.2); type: cell-based; conditions: read-out: Cav3.2(IC50/nM)
# T1 construct: host or cells: HEK
# Description: Manual Patch Clamp Experiment of hCav3.2 Channel: The stable cell line HEK-hCav3.2 used for manual patch clamp experiments was from WuXi Apptec (Shanghai) Company. […] Composition of extracellular fluid (millimoles) in the experiment: HEPES 10, CsCl 6, CaCl2) 2, TEA-Cl 140. The pH was adjusted to 7.4 with CsOH, while the osmotic pressure was adjusted to 310-320 mOsm with sucrose, filtered and stored at 4° C. Composition of the intracellular fluid (millimoles): HEPES 10, CsCl 55, CsSO4 75, MgCl2 10, EGTA 0.1. The pH was adjusted to 7.2 with CsOH, while the osmotic pressure was adjusted to 280-290 mOsm with sucrose, filtered and stored at −20° C. […] Manual Patch Clamp Experiment: The cell suspension was added to a 35 mm petri dish and placed on an inverted microscope stage. The cells were perfused with an extracellular fluid and the flow rate was 1-2 mL/min after cell adherence. […] The stimulation program was repeated every 15 s and recorded continuously. The inhibitory effect of the compound was calculated by the change of the current before and after dosing, and the IC50 value was fitted by the Hill equation.
# [2] = target: T2, hNav1.5 (Homo sapiens, UniProt Q14524); experiment: Manual patch clamp experiment hNav1.5 (HEK-hNav1.5 stable cell line); type: cell-based; conditions: read-out: Nav1.5(IC50/nM)
# T2 construct: host or cells: HEK
# Excerpt: Assay 1: Manual Patch Clamp Experiment of Sodium Ion (hNav1.7, hNav1.5 and hNaV1.8) and Calcium Ion (hCav3.2) Channels
# hNav1.7, hNav1.5 Manual Patch Clamp Experiment:
# Patch voltage clamp electrophysiology allows for the direct measurement and quantification of current block of voltage-gated sodium channels (NaV's), and allows the determination of the time and voltage-dependence of block which has been interpreted as differential binding to the resting, open and inactivated states of the sodium channel to reflect the compound's inhibitory or activating effects (Hille, B., Journal of General Physiology (1977), 69: 497-515).
# Representative compounds of the present invention were subject to a manual patch clamp experiment and the purpose of this study was to test the effect of compounds on this ion channel current on a stable cell line transfected with a specific ion channel using a manual patch clamp method. The used stable cell lines CHO-hNav1.7 and HEK-hNav1.5 were from Genionics and WuXi Apptec (Shanghai) respectively.
# Manual patch clamp experimental program is as follows: […]
# The time intervals of these two voltage stimulation programs were 10 s. The inhibitory effect of the compound was calculated by the change of the current before and after dosing, the IC50 value was fitted by the Hill equation.
# T2 sequence (Q14524 whole entry): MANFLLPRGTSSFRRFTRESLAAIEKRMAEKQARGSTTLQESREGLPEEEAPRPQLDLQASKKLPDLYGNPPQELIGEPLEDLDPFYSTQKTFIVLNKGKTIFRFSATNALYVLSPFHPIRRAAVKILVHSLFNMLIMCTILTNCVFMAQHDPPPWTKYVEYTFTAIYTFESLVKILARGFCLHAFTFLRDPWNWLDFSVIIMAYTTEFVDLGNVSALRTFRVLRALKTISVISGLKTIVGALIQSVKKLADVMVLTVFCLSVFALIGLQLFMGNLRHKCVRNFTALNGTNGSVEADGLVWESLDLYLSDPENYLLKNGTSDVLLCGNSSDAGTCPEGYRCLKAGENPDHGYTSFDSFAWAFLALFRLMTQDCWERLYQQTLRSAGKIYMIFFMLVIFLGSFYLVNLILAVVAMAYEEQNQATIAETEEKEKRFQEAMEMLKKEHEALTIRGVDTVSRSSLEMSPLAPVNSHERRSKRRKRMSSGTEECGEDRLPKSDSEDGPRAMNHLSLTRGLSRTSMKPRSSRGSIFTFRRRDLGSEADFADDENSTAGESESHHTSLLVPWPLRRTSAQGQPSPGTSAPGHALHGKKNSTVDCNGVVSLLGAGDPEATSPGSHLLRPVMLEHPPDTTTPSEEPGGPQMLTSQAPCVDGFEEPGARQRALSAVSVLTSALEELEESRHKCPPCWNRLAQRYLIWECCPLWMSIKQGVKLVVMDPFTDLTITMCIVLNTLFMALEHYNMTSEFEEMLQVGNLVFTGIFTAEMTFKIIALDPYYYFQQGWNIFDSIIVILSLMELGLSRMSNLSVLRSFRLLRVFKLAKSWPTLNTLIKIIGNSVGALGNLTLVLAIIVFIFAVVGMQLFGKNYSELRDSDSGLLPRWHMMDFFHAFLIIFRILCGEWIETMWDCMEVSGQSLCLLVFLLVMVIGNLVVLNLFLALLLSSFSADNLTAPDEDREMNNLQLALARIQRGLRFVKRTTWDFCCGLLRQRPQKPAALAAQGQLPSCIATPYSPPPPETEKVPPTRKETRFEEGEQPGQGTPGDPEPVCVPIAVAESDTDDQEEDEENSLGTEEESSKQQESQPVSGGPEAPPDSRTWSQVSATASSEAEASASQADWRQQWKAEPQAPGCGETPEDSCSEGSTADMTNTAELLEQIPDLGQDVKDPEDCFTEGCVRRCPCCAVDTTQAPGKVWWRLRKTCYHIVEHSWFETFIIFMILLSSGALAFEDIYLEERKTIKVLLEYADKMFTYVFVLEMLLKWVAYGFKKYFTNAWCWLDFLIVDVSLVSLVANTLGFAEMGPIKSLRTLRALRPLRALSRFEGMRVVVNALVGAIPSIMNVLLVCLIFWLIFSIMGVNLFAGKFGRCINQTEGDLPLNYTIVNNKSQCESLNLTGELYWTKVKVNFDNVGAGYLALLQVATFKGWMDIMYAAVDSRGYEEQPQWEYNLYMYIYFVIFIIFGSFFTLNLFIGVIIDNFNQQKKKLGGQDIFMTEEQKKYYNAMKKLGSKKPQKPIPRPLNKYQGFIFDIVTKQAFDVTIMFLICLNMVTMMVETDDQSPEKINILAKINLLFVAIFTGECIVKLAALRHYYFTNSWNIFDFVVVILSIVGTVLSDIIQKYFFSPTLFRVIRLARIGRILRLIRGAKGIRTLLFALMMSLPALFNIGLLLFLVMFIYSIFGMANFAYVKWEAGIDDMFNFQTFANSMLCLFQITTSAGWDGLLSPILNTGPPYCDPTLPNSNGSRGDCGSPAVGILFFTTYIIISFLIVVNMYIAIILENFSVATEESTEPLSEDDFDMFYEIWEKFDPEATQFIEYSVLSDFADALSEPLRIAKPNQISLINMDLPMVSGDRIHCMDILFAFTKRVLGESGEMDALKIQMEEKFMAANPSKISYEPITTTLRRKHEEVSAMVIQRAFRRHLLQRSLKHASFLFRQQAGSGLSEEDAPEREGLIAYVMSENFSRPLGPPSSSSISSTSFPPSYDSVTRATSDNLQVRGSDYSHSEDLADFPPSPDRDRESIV
# T1 sequence (O95180 whole entry): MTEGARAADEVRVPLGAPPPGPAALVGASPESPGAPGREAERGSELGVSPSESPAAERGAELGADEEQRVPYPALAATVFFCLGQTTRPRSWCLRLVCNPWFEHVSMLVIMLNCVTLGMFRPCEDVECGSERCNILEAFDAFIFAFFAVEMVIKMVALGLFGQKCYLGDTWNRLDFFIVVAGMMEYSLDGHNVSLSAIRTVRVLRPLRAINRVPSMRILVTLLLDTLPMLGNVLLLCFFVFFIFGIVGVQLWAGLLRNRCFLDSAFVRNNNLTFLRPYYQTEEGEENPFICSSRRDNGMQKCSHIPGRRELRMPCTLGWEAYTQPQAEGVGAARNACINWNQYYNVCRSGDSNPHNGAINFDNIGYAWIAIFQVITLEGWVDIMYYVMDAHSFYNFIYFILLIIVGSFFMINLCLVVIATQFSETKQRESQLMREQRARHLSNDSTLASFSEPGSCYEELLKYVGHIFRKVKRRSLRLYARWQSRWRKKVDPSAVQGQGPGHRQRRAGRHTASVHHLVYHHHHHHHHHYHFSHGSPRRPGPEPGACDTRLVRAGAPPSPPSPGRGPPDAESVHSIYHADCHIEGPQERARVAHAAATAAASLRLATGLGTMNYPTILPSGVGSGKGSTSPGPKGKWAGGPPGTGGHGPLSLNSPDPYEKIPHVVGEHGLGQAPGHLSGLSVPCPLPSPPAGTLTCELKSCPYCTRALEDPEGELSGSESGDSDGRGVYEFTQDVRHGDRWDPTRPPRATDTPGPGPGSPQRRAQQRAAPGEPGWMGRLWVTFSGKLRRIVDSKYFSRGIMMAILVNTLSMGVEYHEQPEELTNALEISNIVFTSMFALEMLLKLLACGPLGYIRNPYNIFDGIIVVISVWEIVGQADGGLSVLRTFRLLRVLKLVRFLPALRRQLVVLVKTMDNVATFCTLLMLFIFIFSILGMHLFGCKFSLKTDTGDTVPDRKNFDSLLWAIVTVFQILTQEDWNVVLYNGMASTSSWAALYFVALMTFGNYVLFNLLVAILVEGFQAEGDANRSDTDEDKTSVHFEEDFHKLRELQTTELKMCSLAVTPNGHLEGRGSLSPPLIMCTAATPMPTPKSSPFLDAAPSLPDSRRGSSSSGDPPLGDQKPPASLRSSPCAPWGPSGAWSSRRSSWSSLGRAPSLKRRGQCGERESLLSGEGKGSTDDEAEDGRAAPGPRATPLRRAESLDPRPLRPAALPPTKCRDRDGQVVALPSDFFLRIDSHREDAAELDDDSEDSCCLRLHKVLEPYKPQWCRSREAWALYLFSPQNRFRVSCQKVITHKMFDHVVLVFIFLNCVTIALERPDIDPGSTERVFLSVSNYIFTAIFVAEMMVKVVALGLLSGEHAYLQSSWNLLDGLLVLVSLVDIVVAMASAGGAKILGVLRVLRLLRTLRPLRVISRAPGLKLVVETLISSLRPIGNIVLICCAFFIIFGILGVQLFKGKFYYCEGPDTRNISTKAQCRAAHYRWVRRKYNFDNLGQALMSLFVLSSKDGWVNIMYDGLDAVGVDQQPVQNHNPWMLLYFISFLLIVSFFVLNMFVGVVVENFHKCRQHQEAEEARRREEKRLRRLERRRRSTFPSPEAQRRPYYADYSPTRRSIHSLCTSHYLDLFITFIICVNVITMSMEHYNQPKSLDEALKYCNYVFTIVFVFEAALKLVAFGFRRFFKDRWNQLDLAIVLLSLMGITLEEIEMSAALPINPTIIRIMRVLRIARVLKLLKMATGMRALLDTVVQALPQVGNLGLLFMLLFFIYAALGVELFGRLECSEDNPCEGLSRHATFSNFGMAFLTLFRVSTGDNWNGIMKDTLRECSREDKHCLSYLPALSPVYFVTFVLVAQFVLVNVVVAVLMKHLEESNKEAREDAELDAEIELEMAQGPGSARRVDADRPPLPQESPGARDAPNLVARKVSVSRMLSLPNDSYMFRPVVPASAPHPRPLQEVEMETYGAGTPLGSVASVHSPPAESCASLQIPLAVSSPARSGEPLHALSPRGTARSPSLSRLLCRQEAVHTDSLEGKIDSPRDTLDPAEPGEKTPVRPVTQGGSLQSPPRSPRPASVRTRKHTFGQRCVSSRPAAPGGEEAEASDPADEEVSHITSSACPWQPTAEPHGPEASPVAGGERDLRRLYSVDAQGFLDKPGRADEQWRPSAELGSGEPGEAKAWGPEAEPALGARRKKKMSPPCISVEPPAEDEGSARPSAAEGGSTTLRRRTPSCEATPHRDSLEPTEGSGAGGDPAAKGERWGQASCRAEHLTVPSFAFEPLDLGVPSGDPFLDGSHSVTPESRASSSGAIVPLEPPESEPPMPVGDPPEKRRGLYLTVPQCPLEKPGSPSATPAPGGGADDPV
smiles,measurement,setting,value
Cc1cc(N2CCN(Cc3cc(F)c(C(=O)NS(=O)(=O)C4CC4)cc3Cl)CC2)ccc1Cl [Compound Z-164],IC50,[1],> 30000 nM
same,IC50,[2],6160 nM

# — patent US10815197B2, “N-sulfonyl benzamides as voltage-gated sodium channel inhibitors” (SHANGHAI HAIYAN PHARMACEUTICAL TECHNOLOGY CO., LTD., priority 2016, dated 2020)
